# Entries after “also recorded” stand apart in the source; their conditions may differ. Where two headings read alike, the source gives them in different places.
# System: AML/MDS patients
# Conditions: for Fatal SAE: Adverse event / Fatal SAE: Grade / Fatal SAE: Relationship to Bemcentinib: per patient
# Experimental: Safety assessments including standard clinical laboratory safety tests (hematology, biochemistry, coagulation, and urinalysis), physical examinations, vital signs (blood pressure, heart rate, respiration rate and temperature), and ECOG performance status were performed at baseline and throughout the study. Electrocardiograms were obtained at screening, Cycle 1 Day 1–4, 8, and 15, Cycle 2 Day 1, 8 and 15, at Day 1 of each cycle thereafter, (up to and including Cycle 15), and at Final Study Visit. QT prolongation was assessed using the Fridericia correction […] [34]. Severity of QTcF prolongation was defined as follows: Grade 1: maximum prolongation 450–480 ms; Grade 2: maximum prolongation 481-500 ms; Grade 3: ≥501 ms on at least two separate ECGs; Grade 4: ≥501 ms or >60 ms change from baseline, with Torsades de pointes, polymorphic ventricular tachycardia or signs/symptoms of serious arrythmia; Grade 5: Death.
# Adverse events (AEs) were monitored starting at study enrolment until 28 days after end of treatment and graded according to the National Cancer Institute Common Terminology Criteria for Adverse Events (NCI-CTCAE) version 4.0. If drug-related toxicities continued beyond the follow-up period, patients were followed until all drug-related toxicities resolved to grade ≤1, stabilized or returned to baseline.
# [1] = DE and LDAC cohorts combined (n = 72)
smiles,measurement,setting,value
Nc1nc(Nc2ccc3c(c2)CC[C@@H](N2CCCC2)CC3)nn1-c1cc2c(nn1)-c1ccccc1CCC2 [Bemcentinib],Fatal SAEs: cerebral hemorrhage,[1],2 n
same,Fatal SAEs: pneumonia/fungal pneumonia,[1],3 n
same,Fatal SAEs: sepsis/neutropenic sepsis,[1],4 n
same,Fatal SAEs,DE cohort,7
same,"Actinomyces test positive, number of events (E)","human, in vivo",1
same,"Actinomyces test positive, patients affected","human, in vivo",1 (2.8) n (%)
same,"Anaemia, number of events (E)","human, in vivo",4
same,"Anaemia, patients affected","human, in vivo",4 (11.1) n (%)
same,"Anxiety, number of events (E)","human, in vivo",2
same,"Anxiety, patients affected","human, in vivo",2 (5.6) n (%)
same,"Back pain, number of events (E)","human, in vivo",1
same,"Back pain, patients affected","human, in vivo",1 (2.8) n (%)
same,"Blood and lymphatic system disorders (System Organ Class), number of events (E)","human, in vivo",26
same,"Blood and lymphatic system disorders (System Organ Class), patients affected","human, in vivo",12 (33.3) n (%)
same,"Cardiac disorders (System Organ Class), number of events (E)","human, in vivo",10
same,"Cardiac disorders (System Organ Class), patients affected","human, in vivo",4 (11.1) n (%)
same,"Decreased appetite, number of events (E)","human, in vivo",2
same,"Decreased appetite, patients affected","human, in vivo",2 (5.6) n (%)
same,"Dehydration, number of events (E)","human, in vivo",1
same,"Dehydration, patients affected","human, in vivo",1 (2.8) n (%)
same,"Device related infection, number of events (E)","human, in vivo",1
same,"Device related infection, patients affected","human, in vivo",1 (2.8) n (%)
same,"Diarrhoea, number of events (E)","human, in vivo",6
same,"Diarrhoea, patients affected","human, in vivo",3 (8.3) n (%)
same,"Dysgeusia, number of events (E)","human, in vivo",1
same,"Dysgeusia, patients affected","human, in vivo",1 (2.8) n (%)
same,"Dysphagia, number of events (E)","human, in vivo",1
same,"Dysphagia, patients affected","human, in vivo",1 (2.8) n (%)
same,"Dyspnoea exertional, number of events (E)","human, in vivo",1
same,"Dyspnoea exertional, patients affected","human, in vivo",1 (2.8) n (%)
same,"Dyspnoea, number of events (E)","human, in vivo",1
same,"Dyspnoea, patients affected","human, in vivo",1 (2.8) n (%)
same,"Enterococcal bacteraemia, number of events (E)","human, in vivo",1
same,"Enterococcal bacteraemia, patients affected","human, in vivo",1 (2.8) n (%)
same,"Enthesopathy, number of events (E)","human, in vivo",1
same,"Enthesopathy, patients affected","human, in vivo",1 (2.8) n (%)
same,"Epistaxis, number of events (E)","human, in vivo",2
same,"Epistaxis, patients affected","human, in vivo",1 (2.8) n (%)
same,"Fall, number of events (E)","human, in vivo",1
same,"Fall, patients affected","human, in vivo",1 (2.8) n (%)
same,"Fatigue, number of events (E)","human, in vivo",4
same,"Fatigue, patients affected","human, in vivo",2 (5.6) n (%)
same,"Gastrointestinal disorders (System Organ Class), number of events (E)","human, in vivo",18
same,"Gastrointestinal disorders (System Organ Class), patients affected","human, in vivo",12 (33.3) n (%)
same,"General disorders and administration site conditions (System Organ Class), number of events (E)","human, in vivo",8
same,"General disorders and administration site conditions (System Organ Class), patients affected","human, in vivo",6 (16.7) n (%)
same,"General physical health deterioration, number of events (E)","human, in vivo",3
same,"General physical health deterioration, patients affected","human, in vivo",3 (8.3) n (%)
same,"Gingivitis, number of events (E)","human, in vivo",1
same,"Gingivitis, patients affected","human, in vivo",1 (2.8) n (%)
same,"Haematuria, number of events (E)","human, in vivo",1
same,"Haematuria, patients affected","human, in vivo",1 (2.8) n (%)
same,"Hyperglycaemia, number of events (E)","human, in vivo",4
same,"Hyperglycaemia, patients affected","human, in vivo",2 (5.6) n (%)
same,"Hyperuricaemia, number of events (E)","human, in vivo",2
same,"Hyperuricaemia, patients affected","human, in vivo",2 (5.6) n (%)
same,"Hypoglycaemia, number of events (E)","human, in vivo",1
same,"Hypoglycaemia, patients affected","human, in vivo",1 (2.8) n (%)
same,"Hypokalaemia, number of events (E)","human, in vivo",5
same,"Hypokalaemia, patients affected","human, in vivo",5 (13.9) n (%)
same,"Hyponatraemia, number of events (E)","human, in vivo",2
same,"Hyponatraemia, patients affected","human, in vivo",2 (5.6) n (%)
same,"Hypophosphataemia, number of events (E)","human, in vivo",3
same,"Hypophosphataemia, patients affected","human, in vivo",3 (8.3) n (%)
same,"Hypotension, number of events (E)","human, in vivo",3
same,"Hypotension, patients affected","human, in vivo",3 (8.3) n (%)
same,"Hypoxia, number of events (E)","human, in vivo",2
same,"Hypoxia, patients affected","human, in vivo",2 (5.6) n (%)
same,"Infection, number of events (E)","human, in vivo",2
same,"Infection, patients affected","human, in vivo",2 (5.6) n (%)
same,"Infections and infestations (System Organ Class), number of events (E)","human, in vivo",29
same,"Infections and infestations (System Organ Class), patients affected","human, in vivo",23 (63.9) n (%)
same,"Injury, poisoning and procedural complications (System Organ Class), number of events (E)","human, in vivo",1
same,"Injury, poisoning and procedural complications (System Organ Class), patients affected","human, in vivo",1 (2.8) n (%)
same,"Investigations (System Organ Class), number of events (E)","human, in vivo",8
same,"Investigations (System Organ Class), patients affected","human, in vivo",7 (19.4) n (%)
same,"Lactic acidosis, number of events (E)","human, in vivo",1
same,"Lactic acidosis, patients affected","human, in vivo",1 (2.8) n (%)
same,"Leukocytosis, number of events (E)","human, in vivo",1
same,"Leukocytosis, patients affected","human, in vivo",1 (2.8) n (%)
same,"Melaena, number of events (E)","human, in vivo",1
same,"Melaena, patients affected","human, in vivo",1 (2.8) n (%)
same,"Mental status changes, number of events (E)","human, in vivo",1
same,"Mental status changes, patients affected","human, in vivo",1 (2.8) n (%)
same,"Metabolism and nutrition disorders (System Organ Class), number of events (E)","human, in vivo",21
same,"Metabolism and nutrition disorders (System Organ Class), patients affected","human, in vivo",14 (38.9) n (%)
same,"Musculoskeletal and connective tissue disorders (System Organ Class), number of events (E)","human, in vivo",4
same,"Musculoskeletal and connective tissue disorders (System Organ Class), patients affected","human, in vivo",2 (5.6) n (%)
same,"Nausea, number of events (E)","human, in vivo",3
same,"Nausea, patients affected","human, in vivo",3 (8.3) n (%)
same,"Nervous system disorders (System Organ Class), number of events (E)","human, in vivo",3
same,"Nervous system disorders (System Organ Class), patients affected","human, in vivo",3 (8.3) n (%)
same,"Neutropenia, number of events (E)","human, in vivo",3
same,"Neutropenia, patients affected","human, in vivo",2 (5.6) n (%)
same,"Number of TEAE, number of events (E)","human, in vivo",148
same,"Number of TEAE, patients affected","human, in vivo",35 (97.2) n (%)
same,"Oesophagitis, number of events (E)","human, in vivo",1
same,"Oesophagitis, patients affected","human, in vivo",1 (2.8) n (%)
same,"Osteitis, number of events (E)","human, in vivo",1
same,"Osteitis, patients affected","human, in vivo",1 (2.8) n (%)
same,Patients with dose interruptions due to adverse events,"human, in vivo",17
same,Patients with dose reductions,"human, in vivo",3
same,"Pharyngitis, number of events (E)","human, in vivo",1
same,"Pharyngitis, patients affected","human, in vivo",1 (2.8) n (%)
same,"Pneumonia, number of events (E)","human, in vivo",8
same,"Pneumonia, patients affected","human, in vivo",8 (22.2) n (%)
same,"Psychiatric disorders (System Organ Class), number of events (E)","human, in vivo",3
same,"Psychiatric disorders (System Organ Class), patients affected","human, in vivo",3 (8.3) n (%)
same,"Pulmonary congestion, number of events (E)","human, in vivo",1
same,"Pulmonary congestion, patients affected","human, in vivo",1 (2.8) n (%)
same,"Rash erythematous, number of events (E)","human, in vivo",1
same,"Rash erythematous, patients affected","human, in vivo",1 (2.8) n (%)
same,"Renal and urinary disorders (System Organ Class), number of events (E)","human, in vivo",4
same,"Renal and urinary disorders (System Organ Class), patients affected","human, in vivo",2 (5.6) n (%)
same,"Respiratory failure, number of events (E)","human, in vivo",1
same,"Respiratory failure, patients affected","human, in vivo",1 (2.8) n (%)
same,"Respiratory, thoracic and mediastinal disorders (System Organ Class), number of events (E)","human, in vivo",9
same,"Respiratory, thoracic and mediastinal disorders (System Organ Class), patients affected","human, in vivo",6 (16.7) n (%)
same,"Sepsis, number of events (E)","human, in vivo",3
same,"Sepsis, patients affected","human, in vivo",3 (8.3) n (%)
same,"Skin and subcutaneous tissue disorders (System Organ Class), number of events (E)","human, in vivo",1
same,"Skin and subcutaneous tissue disorders (System Organ Class), patients affected","human, in vivo",1 (2.8) n (%)
same,"Stomatitis, number of events (E)","human, in vivo",1
same,"Stomatitis, patients affected","human, in vivo",1 (2.8) n (%)
same,"Streptococcal bacteraemia, number of events (E)","human, in vivo",1
same,"Streptococcal bacteraemia, patients affected","human, in vivo",1 (2.8) n (%)
same,"Supraventricular tachycardia, number of events (E)","human, in vivo",1
same,"Supraventricular tachycardia, patients affected","human, in vivo",1 (2.8) n (%)
same,"Syncope, number of events (E)","human, in vivo",1
same,"Syncope, patients affected","human, in vivo",1 (2.8) n (%)
same,TEAE leading to Discontinuation,"human, in vivo",4 n (%)
same,"Thrombocytopenia, number of events (E)","human, in vivo",7
same,"Thrombocytopenia, patients affected","human, in vivo",5 (13.9) n (%)
same,"Toothache, number of events (E)","human, in vivo",1
same,"Toothache, patients affected","human, in vivo",1 (2.8) n (%)
same,"Urethral haemorrhage, number of events (E)","human, in vivo",1
same,"Urethral haemorrhage, patients affected","human, in vivo",1 (2.8) n (%)
same,"Urinary incontinence, number of events (E)","human, in vivo",1
same,"Urinary incontinence, patients affected","human, in vivo",1 (2.8) n (%)
same,"Vascular disorders (System Organ Class), number of events (E)","human, in vivo",3
same,"Vascular disorders (System Organ Class), patients affected","human, in vivo",3 (8.3) n (%)
same,"Viral infection, number of events (E)","human, in vivo",1
same,"Viral infection, patients affected","human, in vivo",1 (2.8) n (%)
same,"Vomiting, number of events (E)","human, in vivo",2
same,"Vomiting, patients affected","human, in vivo",2 (5.6) n (%)
same,"Oral pain, number of events (E)","human, in vivo, po",1
same,"Oral pain, patients affected","human, in vivo, po",1 (2.8) n (%)
same,Eye toxicity of grade ≥3,in vivo,Only a single event
same,Retinal toxicities,in vivo,no evidence for retinal toxicities
same,Tolerability,in vivo,well-tolerated
same,Fatal SAE: Adverse event,Dose escalation 400 mg/100 mg,Neutropenic sepsis
same,Fatal SAE: Grade,Dose escalation 400 mg/100 mg,5
same,Fatal SAE: Relationship to Bemcentinib,Dose escalation 400 mg/100 mg,Unrelated
same,Fatal SAE: Adverse event,Dose escalation 400 mg/200 mg,Multi-organ failure; also recorded: Pneumonia fungal; also recorded: Cerebral haemorrhage
same,Fatal SAE: Grade,Dose escalation 400 mg/200 mg,5
same,Fatal SAE: Relationship to Bemcentinib,Dose escalation 400 mg/200 mg,Unrelated; also recorded: Unlikely related
same,Fatal SAE: Adverse event,Dose escalation 600 mg/200 mg,Pneumonia; also recorded: Sepsis
same,Fatal SAE: Grade,Dose escalation 600 mg/200 mg,5
same,Fatal SAE: Relationship to Bemcentinib,Dose escalation 600 mg/200 mg,Unrelated
